Patent publication US20260224549A1, “COMPOUNDS, COMPOSITIONS, AND METHODS FOR TREATING, AMELIORATING, AND/OR PREVENTING PAIN” (priority 2023, published 2026)

## CN(C)C[C@H]1CN(CCc2ccsc2)CC[C@]1(O)c1cccc(C(N)=O)c1 [Compound I, 3-(3S, 4R)-3-((dimethylamino)methyl)-4-hydroxy-1-(2-(thiophen-3-yl)ethyl)piperidin-4-yl-benzamide]
Conditioned Place Preference, Drug Self-Administration, Drug Discrimination
  abuse liability: no abuse liability
Preclinical model
  Withdrawal symptoms: only minimal Withdrawal symptoms
